Data published in ChEMBL document CHEMBL1201862, “PubChem BioAssay data set” (2004).
Active and inactive are the calls of the source.

Tests used:
Beta-galactosidase [1] = target: T1, Beta-galactosidase (Escherichia coli, UniProt Q8VNN2); format: functional
Beta-galactosidase [2] = target: T1, Beta-galactosidase; assay: beta-galactosidase enzyme inhibitors and activators, dose response, artefact control for CCR6 antagonist project, biochemical, E. coli enzyme, set 3 (AID 504712); format: functional
[3] = control 3'UTR Renilla luciferase suppression, dose response, counter-screen for Shn3 inhibitor project, cell-based, Clone20-Shn3RL, cherry-picked (AID 624133); format: functional
[4] = inhibitors of HIV Env-driven cell fusion, dose response, cherry-pick (AID 652057); format: functional, cell-based
[5] = Shn3 3'UTR reporter inhibitors, dose response, cell-based, Clone20 osteoblasts, firefly luciferase, cherry-picked (AID 624132); format: functional;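 further: firefly luciferase luminescence from reporter carrying the Shn3 3'UTR in osteoblasts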
[6] = THP-1 cell cytotoxicity, dose response, cytotoxicity control for Vif-APOBEC3G degradation inhibitor project, THP-1 cells (AID 1117359); format: functional; conditions: Human immunodeficiency virus 1, THP-1
[7] = CEM21 lymphoblast cell cytotoxicity, dose response, cytotoxicity control for viral fusion inhibitor project, CellTiter-Glo luminescence, cherry-picked (AID 652042); format: functional, cell-based;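 further: potency for signal decrease meaning cytotoxicity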
[8] = target: T2, Sphingosine 1-phosphate receptor 4 (Homo sapiens, UniProt O95977); assay: Late stage fluorescence dose response cell-based screening assay for antagonists of the Sphingosine 1-Phosphate Receptor 4 (S1P4). [Related pubchem assays: 1524 (Confirmation screen (S1P4 antagonists).), 1510 (Primary screen (S1P4 antagonists).), 1853 (Summary AID (S1P4 antagonists).), 1692 (Dose response screen (S1P4 antagonists).)]; format: functional
T2 sequence (O95977 whole entry): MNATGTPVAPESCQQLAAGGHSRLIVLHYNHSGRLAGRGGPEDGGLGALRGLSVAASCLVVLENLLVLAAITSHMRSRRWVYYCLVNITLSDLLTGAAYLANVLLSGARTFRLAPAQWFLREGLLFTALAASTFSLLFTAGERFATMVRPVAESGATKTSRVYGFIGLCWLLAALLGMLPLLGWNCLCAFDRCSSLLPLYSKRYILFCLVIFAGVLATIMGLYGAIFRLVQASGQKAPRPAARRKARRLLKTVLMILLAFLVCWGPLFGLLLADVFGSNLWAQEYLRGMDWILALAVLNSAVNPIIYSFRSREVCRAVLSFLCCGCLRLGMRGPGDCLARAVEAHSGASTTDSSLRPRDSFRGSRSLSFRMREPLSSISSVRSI

Beta Lactamase = Beta Lactamase (Pseudomonas aeruginosa, UniProt Q932Y6); assay: beta-lactamase reporter inhibitor potency, dose response, artefact control for NOD2-RIPK2 interaction inhibitor project, BLA reporter cells, FRET fluorescence (AID 651552); format: functional, cell-based
[9] = target: Sphingosine 1-phosphate receptor 1 (Homo sapiens, UniProt P21453); format: functional;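 further: Tango beta-arrestin reporter U2OS cells stimulated with S1P near its EC80; inhibitor potency meaning antagonism of receptor activation by the natural agonist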
[10] = inhibitors of SNCA 5'UTR-driven reporter translation, confirmation, H4 neuroglioma cells, luminescence (AID 1988); format: functional, cell-based
Streptokinase A = target: T3, Streptokinase A (Streptococcus pyogenes serotype M1, UniProt P10520); assay: S. pyogenes streptokinase expression inhibitors, potency, dose response, plasminogen activation absorbance, OD405 (AID 1914); format: functional, Streptococcus pyogenes M1 GAS;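 further: secreted streptokinase activity via plasminogen activation per viability signal from cell pellet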
T3 sequence (P10520 whole entry): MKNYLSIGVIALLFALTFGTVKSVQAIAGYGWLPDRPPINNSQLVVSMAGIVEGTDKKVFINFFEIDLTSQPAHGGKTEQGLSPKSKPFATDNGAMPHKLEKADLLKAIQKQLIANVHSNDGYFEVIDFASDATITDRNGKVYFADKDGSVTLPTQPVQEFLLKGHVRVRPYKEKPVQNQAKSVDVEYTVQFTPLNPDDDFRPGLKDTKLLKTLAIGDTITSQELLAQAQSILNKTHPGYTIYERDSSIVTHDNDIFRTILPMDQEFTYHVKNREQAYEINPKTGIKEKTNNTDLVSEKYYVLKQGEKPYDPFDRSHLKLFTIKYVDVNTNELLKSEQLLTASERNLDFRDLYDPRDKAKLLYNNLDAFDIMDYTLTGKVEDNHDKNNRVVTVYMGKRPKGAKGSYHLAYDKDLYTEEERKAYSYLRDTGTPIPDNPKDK

[11] = inhibitors of intracellular T. cruzi replication, confirmation, NIH3T3 host cells, beta-gal luminescence (AID 2044); format: functional, cell-based;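 further: intracellular parasites grown in NIH/3T3 mouse fibroblasts as host cells; luminescent beta-galactosidase reporter signal from transgenic T. cruzi replicating inside host cells; inhibitors lower the luminescence signal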
[12] = cytotoxicity toward NIH3T3 fibroblasts, dose response, counter-screen, cell-based, ATP luminescence, mouse fibroblasts (AID 2010); format: functional;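 further: cells exposed to compound for about 90 hours before reading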
[13] = target: Tyrosine-protein kinase Fer (Homo sapiens, UniProt P16591); format: functional;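 further: FER tested as one member of a kinome panel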
[14] = target: Dual specificity mitogen-activated protein kinase kinase 2 (Homo sapiens, UniProt P36507); assay: Navigating the Kinome. Panel member name: MAP2K2; format: functional
Sequence of Dual specificity mitogen-activated protein kinase kinase 2 (P36507 whole entry): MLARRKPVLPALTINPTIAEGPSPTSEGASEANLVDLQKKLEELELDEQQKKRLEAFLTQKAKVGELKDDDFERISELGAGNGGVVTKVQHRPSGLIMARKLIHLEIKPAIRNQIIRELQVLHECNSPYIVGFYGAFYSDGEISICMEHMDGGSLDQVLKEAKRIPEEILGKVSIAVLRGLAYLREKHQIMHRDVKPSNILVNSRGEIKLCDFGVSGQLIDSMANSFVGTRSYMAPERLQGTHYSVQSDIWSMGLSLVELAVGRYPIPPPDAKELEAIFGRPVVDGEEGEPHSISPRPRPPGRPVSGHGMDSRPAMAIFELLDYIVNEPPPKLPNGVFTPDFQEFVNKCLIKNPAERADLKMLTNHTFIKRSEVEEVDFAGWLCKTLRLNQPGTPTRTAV

[15] = target: Platelet-derived growth factor receptor beta (Homo sapiens, UniProt P09619); format: functional;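 further: value comes from a kinome panel, with PDGFRB tested as one panel member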
Focal adhesion kinase 1 = Focal adhesion kinase 1 (Homo sapiens, UniProt Q05397); format: functional;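 further: measured as one member of a kinome panel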
[16] = target: Mitogen-activated protein kinase 13 (Homo sapiens, UniProt O15264); format: functional
[17] = target: Mitogen-activated protein kinase 9 (Homo sapiens, UniProt P45984); format: functional;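 further: value from a kinome panel profiling assay, MAPK9 panel entry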
[18] = target: Interleukin-1 receptor-associated kinase 4 (Homo sapiens, UniProt Q9NWZ3); format: functional
Sequence of Interleukin-1 receptor-associated kinase 4 (Q9NWZ3 whole entry): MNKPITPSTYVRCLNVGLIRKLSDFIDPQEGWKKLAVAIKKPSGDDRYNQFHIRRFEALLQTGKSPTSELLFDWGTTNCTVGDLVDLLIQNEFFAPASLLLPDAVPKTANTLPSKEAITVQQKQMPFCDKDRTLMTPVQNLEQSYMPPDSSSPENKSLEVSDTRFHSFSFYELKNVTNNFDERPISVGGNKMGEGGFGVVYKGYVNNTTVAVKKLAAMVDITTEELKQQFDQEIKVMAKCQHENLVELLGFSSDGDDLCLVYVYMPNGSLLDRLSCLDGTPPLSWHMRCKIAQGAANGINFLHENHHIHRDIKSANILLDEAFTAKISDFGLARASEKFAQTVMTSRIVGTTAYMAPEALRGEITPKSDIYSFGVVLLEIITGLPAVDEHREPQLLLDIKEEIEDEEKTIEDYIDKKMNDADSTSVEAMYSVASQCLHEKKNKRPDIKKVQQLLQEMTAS

[19] = target: Tyrosine-protein kinase BTK (Homo sapiens, UniProt Q06187); format: functional
Sequence of Tyrosine-protein kinase BTK (Q06187 whole entry): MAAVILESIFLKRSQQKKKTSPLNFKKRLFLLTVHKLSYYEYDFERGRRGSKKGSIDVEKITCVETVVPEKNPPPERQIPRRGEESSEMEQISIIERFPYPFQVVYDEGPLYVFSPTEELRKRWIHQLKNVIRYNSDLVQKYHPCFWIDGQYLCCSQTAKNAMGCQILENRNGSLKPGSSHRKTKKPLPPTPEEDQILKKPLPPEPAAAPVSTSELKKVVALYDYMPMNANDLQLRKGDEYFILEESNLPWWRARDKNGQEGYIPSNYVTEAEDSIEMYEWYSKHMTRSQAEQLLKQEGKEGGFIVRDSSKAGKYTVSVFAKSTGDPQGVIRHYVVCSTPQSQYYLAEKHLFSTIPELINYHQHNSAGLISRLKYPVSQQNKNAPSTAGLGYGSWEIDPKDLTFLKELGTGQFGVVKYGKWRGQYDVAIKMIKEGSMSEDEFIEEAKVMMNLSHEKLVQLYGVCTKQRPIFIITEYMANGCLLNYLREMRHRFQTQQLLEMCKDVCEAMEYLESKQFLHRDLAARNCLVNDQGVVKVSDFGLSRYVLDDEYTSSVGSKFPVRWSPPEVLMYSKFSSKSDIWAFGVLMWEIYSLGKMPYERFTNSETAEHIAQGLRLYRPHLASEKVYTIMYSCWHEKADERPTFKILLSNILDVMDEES

[20] = target: Tyrosine-protein kinase Lck (Homo sapiens, UniProt P06239); format: functional;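 further: lck was assayed as one member of a kinase panel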
[21] = target: Leukocyte tyrosine kinase receptor (Homo sapiens, UniProt P29376); assay: Navigating the Kinome. Panel member name: LTK; format: functional
Sequence of Leukocyte tyrosine kinase receptor (P29376 whole entry): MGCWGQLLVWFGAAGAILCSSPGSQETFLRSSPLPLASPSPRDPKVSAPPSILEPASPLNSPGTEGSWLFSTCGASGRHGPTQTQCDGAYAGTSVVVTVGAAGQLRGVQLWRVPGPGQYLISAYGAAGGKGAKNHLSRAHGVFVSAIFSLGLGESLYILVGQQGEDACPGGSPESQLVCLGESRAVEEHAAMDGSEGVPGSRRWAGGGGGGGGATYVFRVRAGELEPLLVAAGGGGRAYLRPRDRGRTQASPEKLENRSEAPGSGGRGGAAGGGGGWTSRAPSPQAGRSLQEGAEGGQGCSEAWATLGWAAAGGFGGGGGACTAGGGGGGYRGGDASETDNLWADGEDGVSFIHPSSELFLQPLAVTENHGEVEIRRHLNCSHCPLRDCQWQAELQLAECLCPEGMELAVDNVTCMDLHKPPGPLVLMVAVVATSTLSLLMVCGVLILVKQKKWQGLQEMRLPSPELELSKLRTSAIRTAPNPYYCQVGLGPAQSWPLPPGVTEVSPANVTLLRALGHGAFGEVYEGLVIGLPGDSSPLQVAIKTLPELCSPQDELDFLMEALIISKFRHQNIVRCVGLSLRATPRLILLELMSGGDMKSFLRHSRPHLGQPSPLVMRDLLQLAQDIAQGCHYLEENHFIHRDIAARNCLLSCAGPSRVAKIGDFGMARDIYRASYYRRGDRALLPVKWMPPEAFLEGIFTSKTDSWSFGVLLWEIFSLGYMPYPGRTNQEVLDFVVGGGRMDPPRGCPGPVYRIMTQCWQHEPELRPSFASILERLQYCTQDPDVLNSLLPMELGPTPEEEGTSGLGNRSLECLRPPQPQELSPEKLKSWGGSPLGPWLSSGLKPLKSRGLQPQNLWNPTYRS

[22] = target: Vascular endothelial growth factor receptor 3 (Homo sapiens, UniProt P35916); format: functional;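 further: value from a kinome-wide profiling panel, with FLT4 as the panel member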
Activin receptor type-1 = Activin receptor type-1 (Homo sapiens, UniProt Q04771); assay: Navigating the Kinome. Panel member name: ACVR1; format: functional
[23] = target: Cyclin-dependent kinase 1 (Homo sapiens, UniProt P06493); format: functional;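 further: Kinome-wide panel profiling, with the target listed as panel member CDC2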
[24] = target: Mitogen-activated protein kinase kinase kinase kinase 2 (Homo sapiens, UniProt Q12851); format: functional;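 further: measured as one member of a kinome-wide kinase panel, with MAP4K2 as the panel entry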
Sequence of Mitogen-activated protein kinase kinase kinase kinase 2 (Q12851 whole entry): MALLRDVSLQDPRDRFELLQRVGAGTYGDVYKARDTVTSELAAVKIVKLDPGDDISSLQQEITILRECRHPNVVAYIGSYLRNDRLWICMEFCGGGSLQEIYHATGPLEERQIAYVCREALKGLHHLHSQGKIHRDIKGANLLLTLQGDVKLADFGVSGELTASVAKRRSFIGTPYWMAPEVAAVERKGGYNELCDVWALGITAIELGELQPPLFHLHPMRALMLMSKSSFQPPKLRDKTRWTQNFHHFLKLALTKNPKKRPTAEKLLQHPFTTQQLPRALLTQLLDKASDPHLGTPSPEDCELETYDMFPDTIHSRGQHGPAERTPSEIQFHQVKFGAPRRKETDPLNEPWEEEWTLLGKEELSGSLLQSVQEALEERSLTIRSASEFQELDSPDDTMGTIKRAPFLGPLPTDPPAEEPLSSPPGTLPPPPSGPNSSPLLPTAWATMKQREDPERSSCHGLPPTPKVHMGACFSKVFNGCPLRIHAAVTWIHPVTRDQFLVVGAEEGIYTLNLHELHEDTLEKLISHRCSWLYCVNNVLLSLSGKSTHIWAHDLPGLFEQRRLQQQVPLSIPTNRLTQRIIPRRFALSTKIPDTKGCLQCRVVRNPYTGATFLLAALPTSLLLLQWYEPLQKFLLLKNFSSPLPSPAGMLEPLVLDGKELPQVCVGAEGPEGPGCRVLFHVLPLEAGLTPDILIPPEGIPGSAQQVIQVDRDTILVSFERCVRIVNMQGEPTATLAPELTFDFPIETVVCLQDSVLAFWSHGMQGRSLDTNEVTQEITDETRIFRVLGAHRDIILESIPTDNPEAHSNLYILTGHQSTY

[25] = target: Serine/threonine-protein kinase TAO1 (Homo sapiens, UniProt Q7L7X3); format: functional
[26] = target: Proto-oncogene tyrosine-protein kinase receptor Ret (Homo sapiens, UniProt P07949); format: functional;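 further: measured within a kinome-wide profiling panel, RET as the panel member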
[27] = target: Leucine-rich repeat serine/threonine-protein kinase 2 (Homo sapiens, UniProt Q5S007); format: functional;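 further: value from a broad kinome-wide panel profiling study in which LRRK2 was one of the kinases tested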
Misshapen-like kinase 1 = Misshapen-like kinase 1 (Homo sapiens, UniProt Q8N4C8); format: functional;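 further: kinome panel screen with MINK as the panel member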
[28] = target: Protein kinase C theta type (Homo sapiens, UniProt Q04759); assay: Navigating the Kinome. Panel member name: PRKCQ; format: functional
Sequence of Protein kinase C theta type (Q04759 whole entry): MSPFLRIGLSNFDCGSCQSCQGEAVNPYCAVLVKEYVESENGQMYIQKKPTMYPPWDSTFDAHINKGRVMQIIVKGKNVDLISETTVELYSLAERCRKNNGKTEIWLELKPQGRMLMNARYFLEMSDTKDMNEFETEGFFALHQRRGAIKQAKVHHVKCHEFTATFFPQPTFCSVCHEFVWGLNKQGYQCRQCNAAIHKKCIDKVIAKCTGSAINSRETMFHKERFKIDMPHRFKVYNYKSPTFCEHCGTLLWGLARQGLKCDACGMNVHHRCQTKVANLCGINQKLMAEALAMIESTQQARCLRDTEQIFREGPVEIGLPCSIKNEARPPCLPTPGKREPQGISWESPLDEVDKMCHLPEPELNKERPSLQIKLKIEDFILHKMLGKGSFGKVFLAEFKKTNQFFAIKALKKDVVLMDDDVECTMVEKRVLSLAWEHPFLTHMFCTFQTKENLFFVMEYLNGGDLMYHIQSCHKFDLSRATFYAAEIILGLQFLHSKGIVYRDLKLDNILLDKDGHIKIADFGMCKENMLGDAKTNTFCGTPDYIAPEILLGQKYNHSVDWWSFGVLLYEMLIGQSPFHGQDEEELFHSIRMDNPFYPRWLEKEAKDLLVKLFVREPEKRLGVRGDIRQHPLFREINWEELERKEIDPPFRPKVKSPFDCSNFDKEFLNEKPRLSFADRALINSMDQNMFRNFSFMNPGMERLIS

T1 sequence (Q8VNN2 whole entry): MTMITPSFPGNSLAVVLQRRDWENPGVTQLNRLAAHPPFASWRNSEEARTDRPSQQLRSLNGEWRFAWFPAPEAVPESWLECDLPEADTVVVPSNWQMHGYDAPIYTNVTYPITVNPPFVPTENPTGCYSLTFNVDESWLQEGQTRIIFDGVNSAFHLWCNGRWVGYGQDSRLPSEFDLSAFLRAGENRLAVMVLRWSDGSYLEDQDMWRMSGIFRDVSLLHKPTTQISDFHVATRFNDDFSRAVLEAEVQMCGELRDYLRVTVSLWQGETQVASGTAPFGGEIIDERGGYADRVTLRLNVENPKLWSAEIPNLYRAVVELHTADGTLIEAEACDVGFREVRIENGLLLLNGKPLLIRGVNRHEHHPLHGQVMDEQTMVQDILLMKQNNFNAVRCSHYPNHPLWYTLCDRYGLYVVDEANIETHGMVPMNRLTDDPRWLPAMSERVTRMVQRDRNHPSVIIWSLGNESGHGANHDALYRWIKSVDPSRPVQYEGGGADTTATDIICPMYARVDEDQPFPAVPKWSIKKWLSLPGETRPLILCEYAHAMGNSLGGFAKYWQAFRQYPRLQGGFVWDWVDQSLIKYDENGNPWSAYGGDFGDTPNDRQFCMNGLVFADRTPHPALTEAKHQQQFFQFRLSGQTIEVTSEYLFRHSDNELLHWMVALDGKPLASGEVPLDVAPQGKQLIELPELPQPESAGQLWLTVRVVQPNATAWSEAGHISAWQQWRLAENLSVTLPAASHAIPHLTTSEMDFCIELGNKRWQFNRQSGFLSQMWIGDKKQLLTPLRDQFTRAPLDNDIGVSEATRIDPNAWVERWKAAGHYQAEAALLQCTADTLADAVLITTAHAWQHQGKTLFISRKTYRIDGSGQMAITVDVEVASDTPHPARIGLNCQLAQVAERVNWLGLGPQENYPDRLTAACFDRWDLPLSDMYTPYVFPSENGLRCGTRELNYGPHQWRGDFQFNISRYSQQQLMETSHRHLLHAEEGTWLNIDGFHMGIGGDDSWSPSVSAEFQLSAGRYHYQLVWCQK

Which EC50 (Beta-galactosidase [1]) does the source give for `Cc1c(/N=C2\C=CC(=O)c3ccccc32)c(=O)n(-c2ccccc2)n1C` here?
Its EC50 is > 31.5 µM (inactive).

And the IC50 (Beta-galactosidase [2])?
The IC50 was > 66.6 µM (inactive).

For `CCOC(=O)c1c2c(n(Cc3ccccc3)c1C)C(=O)C(=O)c1ccccc1-2`, which AC50 [3] is on record?
The AC50 was 5.03 µM (active).

What about the AC50 [4] of the same compound?
Its AC50 is 6.28 µM (active).

What about the AC50 [5] of the same compound?
Its AC50 is 2.3 µM (active).

What about the CC50 [6] of the same compound?
Its CC50 is 0.87 µM (active).

What about the AC50 [7] of the same compound?
The AC50 was 5.84 µM (active).

With `COC(=O)CCS(=O)(=O)c1nc(-c2ccccc2)cc(C(F)(F)F)n1` as the compound, how does the IC50 [8] read?
Its IC50 is 3.45 µM (not active).

What about the IC50 (Beta Lactamase) of the same compound?
The IC50 was 16.4 µM (inactive).

And the IC50 [9]?
Its IC50 is 28.4 µM (not active).

For `O=C(O)c1ccc2c3c(ncnc13)-c1ccccc1C2=O`, which EC50 [10] is on record?
The EC50 was 2.45 µM (active).

And the EC50 (Streptokinase A)?
The EC50 was 16 µM (active).

With `O=C(O)c1ccc(NC2=C(Cl)C(=O)c3ccccc3C2=O)cc1` as the compound, how does the EC50 [11] read?
The EC50 was 2.74 µM (active).

And the EC50 [12]?
Its EC50 is 4.97 µM (active).

For `COc1cc2c(cc1F)C(c1ccccc1Cl)=Nc1c(n[nH]c1C)N2` [RG-1530], which Ki [13] is on record?
Its Ki is 0.126 µM (active).

What about the Ki [14] of the same compound?
The Ki was 2.51 µM (active).

What about the Ki [15] of the same compound?
Its Ki is 0.0501 µM (active).

And the Ki (Focal adhesion kinase 1)?
Its Ki is 0.0126 µM (active).

And the Ki [16]?
The Ki was > 7.94 µM (inactive).

Which Ki [17] does the source give for `Cc1ccc2nccc(NC(=O)Nc3cccc(C(F)(F)F)n3)c2c1` here?
The Ki was > 3.98 µM (inactive).

What about the Ki [18] of the same compound?
The Ki was > 10 µM (inactive).

What about the Ki [19] of the same compound?
The Ki was > 1.26 µM (inactive).

And the Ki [20]?
The Ki was > 2.51 µM (inactive).

And the Ki [21]?
Its Ki is > 3.16 µM (inactive).

What about the Ki [22] of the same compound?
Its Ki is 1 µM (active).

And the Ki (Activin receptor type-1)?
The Ki was 0.316 µM (active).

What about the Ki [23] of the same compound?
The Ki was 0.501 µM (active).

What about the Ki [24] of the same compound?
Its Ki is > 6.31 µM (inactive).

And the Ki [25]?
The Ki was > 6.31 µM (inactive).

And the Ki [26]?
Its Ki is > 2 µM (inactive).

What about the Ki [27] of the same compound?
The Ki was > 2.51 µM (inactive).

What about the Ki (Misshapen-like kinase 1) of the same compound?
The Ki was 0.2 µM (active).

For `Cc1nn(C)c2sc3c(=O)[nH]cnc3c12`, which Ki [28] is on record?
Its Ki is 79.4 µM (active).
